Patent US12568963B2, “Compounds and compositions for nematode treatment” (IOWA STATE UNIVERSITY RESEARCH FOUNDATION, INC., priority 2020, dated 2026)
“And” between values parts separate entries of the source, which are not always exact repeats. Equal values may be shown once. Read-outs that look alike come from different tables or passages of the source. Marks after values point to notes of the source that are not given here.

How the values were obtained:
SCN = conditions: for SCN Population Densities 34 DAP / SCN Population Densities 64 DAP / SCN Population Densities harvest / Biomass at harvest, total / Biomass at harvest, seed: susceptible soybean; for SCN Population Densities 34 DAP: 34 days after planting; for SCN Population Densities 64 DAP: 64 days after planting; for Biomass at harvest, total: dry weight of all plants per microplot; for Biomass at harvest, seed: seed weight per microplot
Excerpt: Microplots were constructed by inserting 1-m-diameter by 0.25-m-tall circles of plastic drainage pipe into the soil in a field on a university-owned research farm located 10 km (6 miles) due west of Ames, IA. The field was not infested with SCN prior to being infested for the experiment.
The soil in the top 20 cm of each microplot was loosened, turned over, and artificially infested with approximately 570,000 SCN eggs contained within cysts in 1 liter of soil from greenhouse cultures. The SCN inoculum was applied in a band across the middle of the microplot (FIG. 5A), then 1.65 L of treatment solution were applied over the infested soil. […] Two different control treatments consisted of microplots receiving 1.65 L of autoclaved, deionized water and microplots receiving 1.65 L of the solvent used to dilute the compounds. The SCN-infested soil inoculum and applied liquid treatment were rototilled into the soil in each microplot, then 40 seeds of the SCN-susceptible variety “Williams 82” were planted in a single, central row within each microplot (FIG. 5B). Similarly, seeds of the SCN-resistant variety “Jack” were planted in microplots infested with SCN inoculum and treated with water as a third control treatment. There were four replications of each of the six treatments arranged in a randomized complete block design. Microplots were spaced 1 m apart in rows separated by 3 m to avoid cross contamination among microplots (FIG. 5F). Plants were grown for the entire 2020 growing season (FIGS. 5C through 5H).
The total number of plants growing in each microplot were counted (i.e., a “stand count”) 34 days after planting. A total of five soil cores, 2 cm in diameter and 15 to 20 cm deep, were collected from the root zone on either side of the row of soybean plants in each microplot 34 days after planting, 64 days after planting, and when the plants were removed from the microplots to determine the SCN population densities. SCN requires approximately 30 days to complete a single generation. […] SCN cysts (dead females full of eggs) were extracted from the soil samples using a wet sieving method, and eggs were released from the recovered cysts by crushing cysts with a motorized rubber stopper. Recovered eggs were stained with acid fuchsin and counted under a microscope to determine their number per 100 cm^3 of soil.
The stems of soybean plants in each microplot were cut at the soil line, and all plants from each microplot were placed in large paper bags and stored in an unheated shed until they were further processed. The dry weight of all plants in each microplot was determined (total plant biomass at harvest), and then all plants from each microplot were fed through a plot combine to collect and weigh the seeds (seed biomass).

SCN eggs = assay: SCN hatching assay (continuous and short-term exposure); conditions: in vivo
Protocol: Two similar assays ran synchronously. For both, approximately 300 eggs were pipetted onto 20 mm-diameter plastic microsieves and placed in a six-well plate and incubated at 25° C. in 3 mL of treatment (FIG. 1A). In a continuous exposure assay, eggs (FIG. 1B) were incubated in treatments for 15 days, and in a short-term exposure assay, eggs were incubated in treatments for one day, rinsed, then incubated in deionized water for 14 days. The number of hatched second-stage juveniles (FIG. 1B) was determined for both assays after 3, 6, 9, 12, and 15 days when the microsieves containing the eggs were moved to an empty well and fresh treatment solution was added. […] Compounds were tested over twelve different experimental runs in total, with some tested three times, others twice, and some once.
The number of hatched and unhatched juveniles of SCN in each treatment were subjected to an analysis with a quasibinomial generalized linear model to estimate the percent hatching for each treatment in each individual experimental run. Then, a test of marginal means was done to determine the estimated percent hatching in each treatment over all runs. […] Analysis were performed on four different treatment groups: continuous 100 ppm, short term 100 ppm, continuous 10 ppm, and short term 10 ppm.
Because of the complexity of the experimental design and the large variation in hatch rates between different testing blocks, as well as the long duration over which testing has occurred, the statistical analysis is not straight-forward. First, within each block bi, the mean μi hatch rate (in percent) in the solvent control is calculated (in blocks with both short-term and continuous exposure, these two testing methods are analyzed independently). For each treatment hatch rate xj in block bi, a “hatching score” hij is the calculated as
The arcsine transformation is used to account for the fact that calculating the ratio of hatching is subject to non-linear effects. A general linear model is then used to account for additional block effects, and Dunnett's adjustment is used as the multiple comparison procedure to control the familywise error rate, as all treatments are compared to the solvent control. […] These controls were not used in the calculation of significance other than as controls common to each block in the unbalanced incomplete block design experiment.
The estimate column contains an estimate of the difference in hatch rate modulation between the solvent control and the treatment. This is estimated as a percentage hatch rate of the control. For reliability of the magnitude of the effect, more than one block is needed. Due to the high variation in solvent control hatch rates between blocks, some percentage modulations may fall outside the expected range (e.g., below −100%).
Due to the arctangent/tangent conversions, the standard errors of the mean (column SE) are very rough estimates of the standard error. However, the p value column contains the actual p-values.

[1] = Solubility in the solvent system / water; assay type: physicochemical
Protocol: Several tested compounds were obtained commercially while others were synthesized from simple starting materials (see Example 1, supra). Compounds were dissolved in a solvent containing 0.08% ethanol, 0.08% TRITON™ X-100, and nano-purified water and were tested at 10 and 100 ppm.
Almost all compounds were tested at 100 ppm, provided they were sufficiently soluble in the solvent system at this concentration.

M. incognita = assay: RKN quick sand assay (cucumber root galling); assay type: in vivo; conditions: 15 days after infestation with 2,000 M. incognita eggs; abamectin 100 ppm drench; solvent control 24%
Protocol: Deionized water, 100 ppm abamectin, and solvent were used as controls. […] To date, compounds were tested in three different experimental runs, with some compounds being tested twice and others once. A beta regression model was used to estimate the percent of galling for each treatment in each run. As with the hatching data analyses, a test of marginal means was performed to determine the estimated percent of galling in each treatment over all runs.

With `Cc1ccc(C=C[N+](=O)[O-])cc1` [4-M-BNS, 4-methyl beta-nitrostyrene] the “SCN Population Densities 34 DAP” value (SCN; 100 ppm solution) was 5,800 # eggs per 100 cm^3 soil, the “SCN Population Densities 64 DAP” value (SCN; 100 ppm solution) was 7,400 # eggs per 100 cm^3 soil and the “SCN Population Densities harvest” value (SCN; 100 ppm solution, at harvest) was 9,800 # eggs per 100 cm^3 soil. The “Biomass at harvest, total” value (SCN; 100 ppm solution) was 654 g, the “Biomass at harvest, seed” value (SCN; 100 ppm solution) was 322 g and the “seed weights (analogous to grain yield) versus susceptible/water treatment” value (SCN; in vivo) was “significantly greater”. For the same molecule, the “soil SCN egg population densities 64 days after planting versus susceptible/water treatment” value (SCN; in vivo) was “significantly lower”.
With `COc1cc(/C=C/C=O)ccc1O` [4H3MC] the “estimate (difference in hatch rate modulation between solvent control and treatment, as percentage hatch rate of the control)” value (SCN eggs) was −55.3%.
In the case of `C(=C\C1SCCS1)/c1ccccc1` [JSK3011], the solubility in water ([1]; not sufficiently soluble at 100 ppm in solvent system, only tested at 10 ppm) is reported as “low solubility”.
For `O=C(/C=C/c1ccc(Cl)cc1)C1CC1` [JSK3087, 4-Chlorostyryl Cyclopropyl Ketone], the “soil SCN egg population densities 64 days after planting versus susceptible/water treatment” value (SCN; 100 ppm solution, LSD alpha = 0.10) was “significantly lower”, the “SCN Population Densities 34 DAP” value (SCN; 100 ppm solution) was 7,275 # eggs per 100 cm^3 soil and the “SCN Population Densities 64 DAP” value (SCN; 100 ppm solution) was 4,700 # eggs per 100 cm^3 soil. For the same molecule, the “SCN Population Densities harvest” value (SCN; 100 ppm solution, at harvest) was 6,400 # eggs per 100 cm^3 soil, the “Biomass at harvest, total” value (SCN; 100 ppm solution) was 668 g and the “Biomass at harvest, seed” value (SCN; 100 ppm solution) was 327 g. For the same molecule, the “seed weights (analogous to grain yield) versus susceptible/water treatment” value (SCN; at harvest) was “significantly greater”.
For `O=CC(Br)=Cc1ccccc1` [a-bromocinnamaldehyde], the solubility in water [1] was “low solubility”.
In the case of `N#CC=Cc1ccccc1` [cinnamonitrile], the “estimate (difference in hatch rate modulation between solvent control and treatment, as percentage hatch rate of the control)” value (SCN eggs) is reported as −53.8%.
In the case of `CC(=O)C=Cc1ccccc1` [methyl styryl ketone], the “estimate (difference in hatch rate modulation between solvent control and treatment, as percentage hatch rate of the control)” value (SCN eggs) is reported as −75.4% and −85%.
With `O=S(=O)([O-])[O-].[Zn+2]` [zinc sulfate, reference compound] the “estimate (difference in hatch rate modulation between solvent control and treatment, as percentage hatch rate of the control)” value (SCN eggs) was 54.7% and 54.9%.
For abamectin, the “percentage galling of cucumber roots” value (M. incognita) was 0%.
